# Reference: patent US10570184B2, “GLP-1/glucagon receptor co-agonists for medical use” (Novo Nordisk A/S, priority 2014, dated 2020)
# Starred links: 1 amine or outer side, 2 acyl side, 3 side chain; linkers in the order of their positions; H or OH if unused. Non-standard residues stand in square brackets, D forms with d. Residues, ends and D or L forms follow the SMILES beside them. Groups on a side chain read outwards from the residue. *: point of attachment. C18 diacid = O=C(O)CCCCCCCCCCCCCCCCC(=O)*; γGlu = O=C(O)[C@H](CCC(=O)[*:2])N[*:1]; AEEA = NCCOCCOCC(=O)O; Aib = CC(C)(N)C(=O)O
# Target: T1, human GLP-1 receptor (Homo sapiens, UniProt P43220)
# T1 construct: expressed in transfected cells; host or cells: membranes of BHK cells (parent BHKTS13), clone FCW467-12A
# Experiment: Assay (II)(a) GLP-1 receptor binding, 125I-GLP-1 displacement SPA on BHK membranes
# Details: without presence of serum albumin; read-out: GLP-1R IC50 (nM) [Assay (II)(a)]
# Method: The GLP-1 receptor (GLP-1R) binding is a measure of affinity of a compound for the human GLP-1 receptor. The receptor binding of each compound to the human GLP-1 receptor was measured in a displacement binding assay. In this type of assay a labelled ligand (in this case 125I-GLP-1) is bound to the receptor. Each derivative was added in a series of concentrations to isolated membranes containing the human GLP-1 receptor and displacement of the labelled ligand was monitored. The receptor binding was reported as the concentration at which half of the labelled ligand was displaced from the receptor, the IC50 value. In order to test the binding of the derivatives to albumin, the assay may be performed in a very low concentration of serum albumin (max. 0.001% final assay concentration) as well as in the presence of a (considerably) higher concentration of serum albumin (2.0% final assay concentration). An increase of the IC50 value, in the presence of serum albumin indicates an affinity to serum albumin and represents a method to predict a protracted pharmacokinetic profile of the test substance in animal models. The following chemicals were used in the assay: DMEM w/o phenol red (Gibco 11880-028), Pen/strep (Invitrogen 15140-122), G418 (Invitrogen 10131-027), 1 M Hepes (Gibco 15630), EDTA (Invitrogen 15575-038), PBS (Invitrogen 14190-094), fetal calf serum (Invitrogen 16140-071), EGTA, MgCl2 (Merck 1.05832.1000), Tween 20 (Amresco 0850C335), SPA particles (wheat germ agglutinin (WGA) SPA beads, Perkin Elmer RPNQ0001), [125I]-GLP-1]-(7-36)NH2 (produced in-house), OptiPlate™-96 (Perkin Elmer). Buffer 1 consisted of 20 mM Na-HEPES plus 10 mM EDTA and pH was adjusted to 7.4. Buffer 2 consisted of 20 mM Na-HEPES plus 0.1 mM EDTA and pH was adjusted to 7.4. Assay buffer consisted of 50 mM HEPES supplemented with 5 mM EGTA, 5 mM MgCl2, 0.005% Tween 20 and pH was adjusted to 7.4. The cells used in this assay (clone FCW467-12A) were BHK cells with BHKTS13 as a parent cell line. The cells express the human GLP-1 receptor. The cells were grown at 5% CO2 in DMEM, 10% fetal calf serum, 1% Pen/Strep (Penicillin/Streptomycin) and 1.0 mg/ml of the selection marker G418. To make a membrane preparation the cells were grown to approximately 80% confluence. The cells were washed twice in phosphate-buffered saline and harvested. The cells were pelleted using a brief centrifugation and the cell pellet was kept on ice. The cell pellet was homogenised with ULTRA-THURRAX dispersing instrument for 20-30 seconds in a suitable amount of buffer 1 (e.g., 10 ml). The homogenate was centrifuged for 15 minutes. The pellet was re-suspended (homogenised) in 10 ml buffer 2 and centrifuged. This step was repeated once more. The resulting pellet was re-suspended in buffer 2 and the protein concentration was determined. The membranes were aliquoted and stored at minus 80° C. • 1. For the receptor binding assay, 50 μl of the assay buffer was added to each well of an assay plate. • 2. Test compounds were serially diluted to give the following concentrations: 8×10EE-7 M, 8×10EE-8 M, 8×10EE-9 M, 8×10EE-10 M, 8×10EE-11 M, 8×10EE-12 M and 8×10EE-13 M. Twenty-five μl were added to appropriate wells in the assay plate. • 3. Cell membrane aliquots were thawed and diluted to their working concentration. Fifty μl were added to each well in the assay plate. • 4. WGA SPA beads were suspended in assay buffer at 20 mg/ml. The suspension was diluted to 10 mg/ml in assay buffer just prior to addition to the assay plate. Fifty μl were added to each well in the assay plate. • 5. The incubation was started by adding 25 μl of […] solution of [125I]-GLP-1]-(7-36)NH2 to each well of the assay plate. A 25 μl aliquot was reserved for measuring total counts/well. • 6. The assay plate was incubated for 2 h at 30° C. • 7. The assay plate was centrifuged for 10 min. • 8. The assay plate was read in a Perkin Elmer TopCount NXT instrument. […]
# T1 sequence (P43220 24-463): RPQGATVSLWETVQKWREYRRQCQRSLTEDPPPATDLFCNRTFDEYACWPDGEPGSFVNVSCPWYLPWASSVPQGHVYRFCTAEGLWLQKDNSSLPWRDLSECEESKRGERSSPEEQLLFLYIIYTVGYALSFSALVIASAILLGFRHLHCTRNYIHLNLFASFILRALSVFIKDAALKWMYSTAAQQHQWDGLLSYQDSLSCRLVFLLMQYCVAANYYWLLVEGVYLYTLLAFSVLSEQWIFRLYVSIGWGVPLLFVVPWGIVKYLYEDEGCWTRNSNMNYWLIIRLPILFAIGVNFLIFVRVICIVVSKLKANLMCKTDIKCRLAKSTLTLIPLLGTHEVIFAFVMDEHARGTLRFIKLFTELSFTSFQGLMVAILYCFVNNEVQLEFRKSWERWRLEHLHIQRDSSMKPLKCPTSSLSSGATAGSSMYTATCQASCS
row,Structure (SMILES),IC50 [nM]
1,"CC[C@H](C)[C@H](NC(=O)[C@H](CC(C)C)NC(=O)[C@H](Cc1c[nH]c2ccccc12)NC(=O)[C@H](CCCCNC(=O)COCCOCCNC(=O)COCCOCCNC(=O)CC[C@H](NC(=O)CC[C@H](NC(=O)CC[C@H](NC(=O)CCCCCCCCCCCCCCCCC(=O)O)C(=O)O)C(=O)O)C(=O)O)NC(=O)[C@@H](NC(=O)[C@H](Cc1ccccc1)NC(=O)[C@H](CC(=O)O)NC(=O)[C@H](CCCNC(=N)N)NC(=O)[C@H](C)NC(=O)[C@H](CCCNC(=N)N)NC(=O)[C@H](CCCNC(=N)N)NC(=O)[C@H](C)NC(=O)[C@H](CC(=O)O)NC(=O)[C@H](CC(C)C)NC(=O)[C@H](Cc1ccc(O)cc1)NC(=O)[C@H](CCCCN)NC(=O)[C@H](CO)NC(=O)[C@H](Cc1ccc(O)cc1)NC(=O)[C@H](CC(=O)O)NC(=O)[C@H](CO)NC(=O)[C@@H](NC(=O)[C@H](Cc1ccccc1)NC(=O)[C@@H](NC(=O)CNC(=O)[C@H](CCC(N)=O)NC(=O)C(C)(C)NC(=O)[C@@H](N)Cc1c[nH]cn1)[C@@H](C)O)[C@@H](C)O)C(C)C)C(=O)N[C@@H](CO)C(=O)N[C@H](C(N)=O)[C@@H](C)O [Chem. 1, N^ε24-[2-[2-[2-[[2-[2-[2-[[(4S)-4-carboxy-4-[[(4S)-4-carboxy-4-[[(4S)-4-carboxy-4-(17-carboxyheptadecanoylamino)butanoyl]amino]butanoyl]amino]butanoyl]amino]ethoxy]ethoxy]acetyl]amino]ethoxy]ethoxy]acetyl]-[Aib2,Ala16,Arg20,Lys24,Ile27,Ser28]-Glucagon amide] (H-H[Aib]QGTFTSDYSKYLDARRARDFVK([AEEA-AEEA-γGlu-γGlu-γGlu-C18 diacid])WLIST-NH2)",0.9
2,"CC[C@H](C)[C@H](NC(=O)[C@H](CC(C)C)NC(=O)[C@H](Cc1c[nH]c2ccccc12)NC(=O)[C@H](CCC(N)=O)NC(=O)[C@@H](NC(=O)[C@H](Cc1ccccc1)NC(=O)[C@H](CC(=O)O)NC(=O)[C@H](CCCNC(=N)N)NC(=O)[C@H](C)NC(=O)[C@H](CCCNC(=N)N)NC(=O)[C@H](CCCNC(=N)N)NC(=O)[C@H](C)NC(=O)[C@H](CC(=O)O)NC(=O)[C@H](CC(C)C)NC(=O)[C@H](Cc1ccc(O)cc1)NC(=O)[C@H](CCCCN)NC(=O)[C@H](CO)NC(=O)[C@H](CC(C)C)NC(=O)[C@H](CC(=O)O)NC(=O)[C@H](CO)NC(=O)[C@@H](NC(=O)[C@H](Cc1ccccc1)NC(=O)[C@@H](NC(=O)CNC(=O)[C@H](CCC(N)=O)NC(=O)C(C)(C)NC(=O)[C@@H](N)Cc1c[nH]cn1)[C@@H](C)O)[C@@H](C)O)C(C)C)C(=O)N[C@@H](CCCCNC(=O)COCCOCCNC(=O)COCCOCCNC(=O)CC[C@H](NC(=O)CC[C@H](NC(=O)CC[C@H](NC(=O)CCCCCCCCCCCCCCCCC(=O)O)C(=O)O)C(=O)O)C(=O)O)C(=O)N[C@H](C(N)=O)[C@@H](C)O [Chem. 5, N^ε28-[2-[2-[2-[[2-[2-[2-[[(4S)-4-carboxy-4-[[(4S)-4-carboxy-4-[[(4S)-4-carboxy-4-(17-carboxyheptadecanoylamino)butanoyl]amino]butanoyl]amino]butanoyl]amino]ethoxy]ethoxy]acetyl]amino]ethoxy]ethoxy]acetyl]-[Aib2,Leu10,Ala16,Arg20,Ile27,Lys28]-Glucagon amide] (H-H[Aib]QGTFTSDLSKYLDARRARDFVQWLIK([AEEA-AEEA-γGlu-γGlu-γGlu-C18 diacid])T-NH2; N-terminus assumed)",0.1
3,"CC[C@H](C)[C@H](NC(=O)[C@H](CC(C)C)NC(=O)[C@H](Cc1c[nH]c2ccccc12)NC(=O)[C@H](CCC(N)=O)NC(=O)[C@@H](NC(=O)[C@H](Cc1ccccc1)NC(=O)[C@H](CC(=O)O)NC(=O)[C@H](CCC(N)=O)NC(=O)[C@H](C)NC(=O)[C@H](CCCNC(=N)N)NC(=O)[C@H](CCCNC(=N)N)NC(=O)[C@H](CC(C)C)NC(=O)[C@H](CC(=O)O)NC(=O)[C@H](CC(C)C)NC(=O)[C@H](Cc1ccc(O)cc1)NC(=O)[C@H](CCCCN)NC(=O)[C@H](CO)NC(=O)[C@H](CC(C)C)NC(=O)[C@H](CC(=O)O)NC(=O)[C@H](CO)NC(=O)[C@@H](NC(=O)[C@H](Cc1ccccc1)NC(=O)[C@@H](NC(=O)CNC(=O)[C@H](CCC(N)=O)NC(=O)C(C)(C)NC(=O)[C@@H](N)Cc1c[nH]cn1)[C@@H](C)O)[C@@H](C)O)C(C)C)C(=O)N[C@@H](CCCCNC(=O)COCCOCCNC(=O)COCCOCCNC(=O)CC[C@H](NC(=O)CC[C@H](NC(=O)CC[C@H](NC(=O)CCCCCCCCCCCCCCCCC(=O)O)C(=O)O)C(=O)O)C(=O)O)C(=O)N[C@H](C(N)=O)[C@@H](C)O [Chem. 9, N^ε28-[2-[2-[2-[[2-[2-[2-[[(4S)-4-carboxy-4-[[(4S)-4-carboxy-4-[[(4S)-4-carboxy-4-(17-carboxyheptadecanoylamino)butanoyl]amino]butanoyl]amino]butanoyl]amino]ethoxy]ethoxy]acetyl]amino]ethoxy]ethoxy]acetyl]-[Aib2,Leu10,Leu16,Ile27,Lys28]-Glucagon amide] (H-H[Aib]QGTFTSDLSKYLDLRRAQDFVQWLIK([AEEA-AEEA-γGlu-γGlu-γGlu-C18 diacid])T-NH2; N-terminus assumed)",0.5
4,"CC[C@H](C)[C@H](NC(=O)[C@H](CC(C)C)NC(=O)[C@H](Cc1c[nH]c2ccccc12)NC(=O)[C@H](CCCCNC(=O)COCCOCCNC(=O)COCCOCCNC(=O)CC[C@H](NC(=O)CC[C@H](NC(=O)CC[C@H](NC(=O)CCCCCCCCCCCCCCCCC(=O)O)C(=O)O)C(=O)O)C(=O)O)NC(=O)[C@@H](NC(=O)[C@H](Cc1ccccc1)NC(=O)[C@H](CC(=O)O)NC(=O)[C@H](CCCNC(=N)N)NC(=O)[C@H](C)NC(=O)[C@H](CCCNC(=N)N)NC(=O)[C@H](CCCNC(=N)N)NC(=O)[C@H](CO)NC(=O)[C@H](CCC(=O)O)NC(=O)[C@H](CC(C)C)NC(=O)[C@H](Cc1ccc(O)cc1)NC(=O)[C@H](CCCCN)NC(=O)[C@H](CO)NC(=O)[C@H](Cc1ccc(O)cc1)NC(=O)[C@H](CC(=O)O)NC(=O)[C@H](CO)NC(=O)[C@@H](NC(=O)[C@H](Cc1ccccc1)NC(=O)[C@@H](NC(=O)CNC(=O)[C@H](CCC(N)=O)NC(=O)C(C)(C)NC(=O)[C@@H](N)Cc1c[nH]cn1)[C@@H](C)O)[C@@H](C)O)C(C)C)C(=O)N[C@@H](CO)C(=O)N[C@H](C(N)=O)[C@@H](C)O [Chem. 11, N^ε24-[2-[2-[2-[[2-[2-[2-[[(4S)-4-carboxy-4-[[(4S)-4-carboxy-4-[[(4S)-4-carboxy-4-(17-carboxyheptadecanoylamino)butanoyl]amino]butanoyl]amino]butanoyl]amino]ethoxy]ethoxy]acetyl]amino]ethoxy]ethoxy]acetyl]-[Aib2,Glu15,Arg20,Lys24,Ile27,Ser28]-Glucagon amide] (H-H[Aib]QGTFTSDYSKYLESRRARDFVK([AEEA-AEEA-γGlu-γGlu-γGlu-C18 diacid])WLIST-NH2)",0.5
